Assay results taken from paper PMC8237303 (Heliyon, 2021).

Columns and labels:
[1] = test system: Bombesin receptor (Non-selective); assay: [125I]-Bombesin binding assay; conditions: 0.1 mM l-menthol; Rat whole brain
[2] = target: Adenosine A2a receptor (Human) (Homo sapiens, UniProt P29274); assay: [3H]-CGS21680 binding assay; conditions: 0.1 mM l-menthol; Human recombinant
[3] = test system: GABA A receptor (Picrotoxin site); assay: [3H]-EBOB binding assay; design: species or system Rat
[4] = target: α2A-Adrenergic receptor (Human) (Homo sapiens, UniProt P08913); assay: [3H]-Rauwolscine hydrochloride binding assay; conditions: 0.1 mM l-menthol; Human recombinant
[5] = test system: GABA transporter; assay: gamma-[3H]-Aminobutyric Acid; type: binding; conditions: 0.1 mM l-menthol; Rat cerebral cortex; in the presence of isoguvacine hydrochloride and S (−)-baclofen hydrochloride
[6] = target: Adenosine A3 receptor (Human) (Homo sapiens, UniProt P0DMS8); assay: [125I]-AB-MECA binding assay; conditions: 0.1 mM l-menthol; Human recombinant
[7] = target: Bradykinin B2 receptor (Human) (Homo sapiens, UniProt P30411); assay: [3H]-Bradykinin binding assay; conditions: 0.1 mM l-menthol; Human recombinant
[8] = target: α2C-Adrenergic receptor (Human) (Homo sapiens, UniProt P18825); assay: [3H]-Rauwolscine hydrochloride binding assay; conditions: 0.1 mM l-menthol; Human recombinant
[9] = test system: Monoamine transporter; assay: [3H]-α-Dihydrotetrabenazine binding assay; conditions: 0.1 mM l-menthol; Rabbit platelet
[10] = target: Dopamine D3 receptor (Human) (Homo sapiens, UniProt P35462); assay: R-; type: binding; conditions: 0.1 mM l-menthol; Human recombinant
[11] = target: Neurokinin NK2 receptor (Human) (Homo sapiens, UniProt P21452); assay: [3H]-SR 48968 binding assay; conditions: 0.1 mM l-menthol; Human recombinant
[12] = target: Bradykinin B1 receptor (Human) (Homo sapiens, UniProt P46663); assay: [3H]-Kallidin; type: binding; conditions: 0.1 mM l-menthol; Human recombinant
[13] = target: Opiate ORL1 receptor (Human) (Homo sapiens, UniProt P41146); assay: [3H]-Nociceptin binding assay; conditions: 0.1 mM l-menthol; Human recombinant
[14] = target: Melatonin MT1 receptor (Human) (Homo sapiens, UniProt P48039); assay: [125I]-Melatonin binding assay; conditions: 0.1 mM l-menthol; Human recombinant
[15] = target: α1A-Adrenergic receptor (Rattus norvegicus, UniProt P43140); assay: [3H]-Prazosin binding assay; conditions: 0.1 mM l-menthol; Rat submandibular gland
[16] = test system: K channel KA; assay: [125I]-Dendrotoxin binding assay; conditions: 0.1 mM l-menthol; Rat cerebral cortex
[17] = target: Neurokinin NK3 receptor (Human) (Homo sapiens, UniProt P29371); assay: [125I]-Neurokinin B; type: binding; conditions: 0.1 mM l-menthol; Human recombinant
[18] = target: Neurokinin NK1 receptor (Human) (Homo sapiens, UniProt P25103); assay: [125I]-Substance P binding assay; conditions: 0.1 mM l-menthol; Human recombinant
[19] = target: α2B-Adrenergic receptor (Human) (Homo sapiens, UniProt P18089); type: binding
[20] = test system: Glutamate receptor (NMDA phencycidine site); assay: [3H]-; type: binding; conditions: 0.1 mM l-menthol; Rat cerebral cortex
[21] = target: GABA B receptor (Rattus norvegicus, UniProt Q9Z0U4); assay: gamma-[3H]-Aminobutyric Acid; type: binding; conditions: 0.1 mM l-menthol; Rat cerebellum
[22] = target: Neuropeptide Y1 receptor (Human) (Homo sapiens, UniProt P25929); assay: [125I]-Peptide YY; type: binding; conditions: 0.1 mM l-menthol; Human receptor (Non-recombinant)
[23] = target: Muscarinic M2 receptor (Human) (Homo sapiens, UniProt P08172); assay: [3H]-Scopolamine Methyl Chloride binding assay; conditions: 0.1 mM l-menthol; Human recombinant
[24] = target: Opiate δ receptor (Human) (Homo sapiens, UniProt P41143); assay: [3H]-Naltrindole binding assay; conditions: 0.1 mM l-menthol; Human recombinant
[25] = test system: GABA A receptor (Agonist site); assay: [3H]-Muscimol binding assay; conditions: 0.1 mM l-menthol; Rat cerebellum
[26] = test system: Glutamate receptor (Kainate); assay: [3H]-Kainic Acid binding assay; conditions: 0.1 mM l-menthol; Rat whole brain
[27] = test system: IP3 receptor; assay: D-[3H]-Inositol-1,4,5-Triphosphate binding assay; conditions: 0.1 mM l-menthol; Rat cerebellum
[28] = target: β1-Adrenergic receptor (Human) (Homo sapiens, UniProt P08588); assay: [3H]-; type: binding; conditions: 0.1 mM l-menthol; Human recombinant
[29] = target: Angiotensin AT2 receptor (Human) (Homo sapiens, UniProt P50052); assay: [125I]-CGP-42112A binding assay; conditions: 0.1 mM l-menthol; Human recombinant
[30] = test system: Ca channel (Type L, Benzothiazepine); assay: [3H]-; type: binding; conditions: 0.1 mM l-menthol; Rat cerebral cortex
[31] = target: Ca Channel (Type N) (Rattus norvegicus, UniProt Q02294); type: binding
[32] = target: Dopamien D1 receptor (Human) (Homo sapiens, UniProt P21728); assay: [3H]–SCH–23390 hydrochloride binding assay; conditions: 0.1 mM l-menthol; Human recombinant
[33] = target: Endothelin ETA receptor (Human) (Homo sapiens, UniProt P25101); assay: [125I]-Endothelin-1; type: binding; conditions: 0.1 mM l-menthol; Human recombinant
[34] = test system: Glycine receptor (Strychnine sensitive); type: binding; conditions: 0.1 mM l-menthol; Rat spinal cord
[35] = target: Muscarinic M3 receptor (Human) (Homo sapiens, UniProt P20309); type: binding; conditions: 0.1 mM l-menthol; Human recombinant
[36] = target: Muscarinic M5 receptor (Human) (Homo sapiens, UniProt P08912); assay: [3H]-Scopolamine Methyl Chloride binding assay; conditions: 0.1 mM l-menthol; Human recombinant
[37] = target: Neuropeptide Y2 receptor (Human) (Homo sapiens, UniProt P49146); assay: [125I]-Peptide YY; type: binding; conditions: 0.1 mM l-menthol; Human receptor (Non-recombinant)
[38] = target: Neurotensin NT1 receptor (Human) (Homo sapiens, UniProt P30989); assay: [125I]-Neurotensin binding assay; conditions: 0.1 mM l-menthol; Human recombinant
[39] = test system: Nicotinic receptor (Human); assay: [3H]-; type: binding; conditions: 0.1 mM l-menthol; Human receptor (Non-recombinant)
[40] = target: Opiate μ receptor (Human) (Homo sapiens, UniProt P35372); assay: [3H]-Diprenorphine binding assay; conditions: 0.1 mM l-menthol; Human recombinant
[41] = test system: PAF receptor; assay: 1-O-Hexadecyl-[3H]-Platelet Activating Factor; type: binding; conditions: 0.1 mM l-menthol; Rabbit platelet
[42] = test system: 88 different ligands for specific biomolecules; assay: Binding assay, 88 different ligands; conditions: 0.1 mM l-menthol

Chain of Bradykinin B2 receptor (Human) (P30411 whole entry): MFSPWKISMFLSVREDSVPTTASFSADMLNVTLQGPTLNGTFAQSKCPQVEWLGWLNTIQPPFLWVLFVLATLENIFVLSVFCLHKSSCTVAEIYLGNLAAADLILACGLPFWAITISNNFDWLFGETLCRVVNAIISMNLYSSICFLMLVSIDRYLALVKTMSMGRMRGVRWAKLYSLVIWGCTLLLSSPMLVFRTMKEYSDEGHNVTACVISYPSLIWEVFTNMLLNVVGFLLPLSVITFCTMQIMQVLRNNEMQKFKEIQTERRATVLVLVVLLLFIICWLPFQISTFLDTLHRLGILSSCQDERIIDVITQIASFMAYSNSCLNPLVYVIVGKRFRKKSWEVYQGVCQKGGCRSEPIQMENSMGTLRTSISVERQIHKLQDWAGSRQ
Chain of Dopamine D3 receptor (Human) (P35462 whole entry): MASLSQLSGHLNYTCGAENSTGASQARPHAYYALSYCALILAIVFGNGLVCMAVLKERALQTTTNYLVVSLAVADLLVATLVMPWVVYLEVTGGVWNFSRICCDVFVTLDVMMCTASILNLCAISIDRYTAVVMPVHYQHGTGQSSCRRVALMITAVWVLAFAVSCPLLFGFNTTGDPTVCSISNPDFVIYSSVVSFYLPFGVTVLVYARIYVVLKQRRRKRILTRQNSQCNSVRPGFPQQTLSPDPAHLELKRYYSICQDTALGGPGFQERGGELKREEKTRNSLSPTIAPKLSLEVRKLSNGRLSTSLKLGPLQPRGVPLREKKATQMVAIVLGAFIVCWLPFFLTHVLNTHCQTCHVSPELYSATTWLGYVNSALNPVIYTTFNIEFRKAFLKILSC
Chain of GABA B receptor (Q9Z0U4 20-960): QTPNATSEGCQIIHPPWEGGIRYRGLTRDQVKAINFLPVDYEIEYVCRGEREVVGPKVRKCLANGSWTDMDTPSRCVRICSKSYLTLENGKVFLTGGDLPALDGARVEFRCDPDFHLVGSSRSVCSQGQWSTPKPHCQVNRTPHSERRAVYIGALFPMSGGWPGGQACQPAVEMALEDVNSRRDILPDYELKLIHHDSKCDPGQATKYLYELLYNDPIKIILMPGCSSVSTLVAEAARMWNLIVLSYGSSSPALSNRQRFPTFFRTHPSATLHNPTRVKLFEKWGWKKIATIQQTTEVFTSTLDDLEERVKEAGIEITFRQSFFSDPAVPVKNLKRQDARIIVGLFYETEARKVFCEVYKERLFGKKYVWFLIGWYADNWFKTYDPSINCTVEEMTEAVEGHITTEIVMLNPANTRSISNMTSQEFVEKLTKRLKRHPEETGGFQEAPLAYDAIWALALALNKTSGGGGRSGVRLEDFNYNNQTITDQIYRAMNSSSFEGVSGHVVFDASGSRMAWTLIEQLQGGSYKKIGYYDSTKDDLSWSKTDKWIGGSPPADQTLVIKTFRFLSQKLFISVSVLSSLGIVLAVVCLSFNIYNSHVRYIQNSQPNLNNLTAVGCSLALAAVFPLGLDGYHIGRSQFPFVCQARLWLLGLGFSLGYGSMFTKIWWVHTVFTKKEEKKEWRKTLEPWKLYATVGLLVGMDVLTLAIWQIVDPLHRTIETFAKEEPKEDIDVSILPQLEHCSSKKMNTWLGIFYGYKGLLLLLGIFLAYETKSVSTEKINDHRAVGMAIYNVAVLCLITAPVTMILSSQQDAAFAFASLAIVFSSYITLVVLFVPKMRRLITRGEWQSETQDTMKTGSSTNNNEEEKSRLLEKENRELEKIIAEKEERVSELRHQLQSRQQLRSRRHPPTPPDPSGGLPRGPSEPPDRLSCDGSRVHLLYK
Chain of GABA B receptor (O88871 41-940 partner): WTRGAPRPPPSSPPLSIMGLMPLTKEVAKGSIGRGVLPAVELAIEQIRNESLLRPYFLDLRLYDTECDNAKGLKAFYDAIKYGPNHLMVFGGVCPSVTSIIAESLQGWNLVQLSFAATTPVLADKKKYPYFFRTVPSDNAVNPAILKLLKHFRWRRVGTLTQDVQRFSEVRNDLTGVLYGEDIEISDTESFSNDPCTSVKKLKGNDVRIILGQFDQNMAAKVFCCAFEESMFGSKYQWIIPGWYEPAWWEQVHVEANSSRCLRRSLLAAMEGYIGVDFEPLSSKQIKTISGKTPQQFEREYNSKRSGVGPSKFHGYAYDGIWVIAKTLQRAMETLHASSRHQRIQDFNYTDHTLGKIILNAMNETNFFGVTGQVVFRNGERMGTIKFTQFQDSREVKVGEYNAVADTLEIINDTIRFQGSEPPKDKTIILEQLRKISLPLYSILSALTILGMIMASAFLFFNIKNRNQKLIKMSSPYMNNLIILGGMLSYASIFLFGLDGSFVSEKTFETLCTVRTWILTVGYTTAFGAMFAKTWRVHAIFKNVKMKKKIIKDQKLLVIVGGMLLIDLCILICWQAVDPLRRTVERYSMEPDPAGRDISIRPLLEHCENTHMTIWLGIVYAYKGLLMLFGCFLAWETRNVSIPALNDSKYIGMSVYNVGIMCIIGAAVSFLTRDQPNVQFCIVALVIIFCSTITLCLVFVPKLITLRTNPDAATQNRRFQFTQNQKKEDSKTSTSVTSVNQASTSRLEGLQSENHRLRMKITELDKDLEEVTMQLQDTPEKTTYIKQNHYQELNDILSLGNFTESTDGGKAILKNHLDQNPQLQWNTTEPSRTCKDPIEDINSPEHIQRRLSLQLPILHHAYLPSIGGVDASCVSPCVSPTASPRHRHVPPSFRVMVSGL
Chain of Bradykinin B1 receptor (Human) (P46663 whole entry): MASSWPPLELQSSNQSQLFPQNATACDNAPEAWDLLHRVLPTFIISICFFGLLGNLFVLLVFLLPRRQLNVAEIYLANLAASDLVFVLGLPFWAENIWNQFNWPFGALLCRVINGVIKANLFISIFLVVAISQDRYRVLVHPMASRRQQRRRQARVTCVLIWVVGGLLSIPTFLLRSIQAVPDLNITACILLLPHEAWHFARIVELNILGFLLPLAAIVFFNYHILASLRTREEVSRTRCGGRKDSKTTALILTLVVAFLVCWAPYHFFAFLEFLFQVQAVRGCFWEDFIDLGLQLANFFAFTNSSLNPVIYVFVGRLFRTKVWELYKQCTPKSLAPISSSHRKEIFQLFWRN
Chain of Adenosine A3 receptor (Human) (P0DMS8 whole entry): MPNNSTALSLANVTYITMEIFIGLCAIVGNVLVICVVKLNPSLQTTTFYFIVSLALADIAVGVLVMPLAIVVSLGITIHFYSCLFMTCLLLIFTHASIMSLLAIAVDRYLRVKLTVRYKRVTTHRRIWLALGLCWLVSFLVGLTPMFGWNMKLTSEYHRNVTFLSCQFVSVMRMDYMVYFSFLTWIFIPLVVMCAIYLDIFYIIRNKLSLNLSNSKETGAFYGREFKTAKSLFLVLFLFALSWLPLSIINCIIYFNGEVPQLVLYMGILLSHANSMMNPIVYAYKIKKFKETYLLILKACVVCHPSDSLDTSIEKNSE
Chain of Muscarinic M3 receptor (Human) (P20309 whole entry): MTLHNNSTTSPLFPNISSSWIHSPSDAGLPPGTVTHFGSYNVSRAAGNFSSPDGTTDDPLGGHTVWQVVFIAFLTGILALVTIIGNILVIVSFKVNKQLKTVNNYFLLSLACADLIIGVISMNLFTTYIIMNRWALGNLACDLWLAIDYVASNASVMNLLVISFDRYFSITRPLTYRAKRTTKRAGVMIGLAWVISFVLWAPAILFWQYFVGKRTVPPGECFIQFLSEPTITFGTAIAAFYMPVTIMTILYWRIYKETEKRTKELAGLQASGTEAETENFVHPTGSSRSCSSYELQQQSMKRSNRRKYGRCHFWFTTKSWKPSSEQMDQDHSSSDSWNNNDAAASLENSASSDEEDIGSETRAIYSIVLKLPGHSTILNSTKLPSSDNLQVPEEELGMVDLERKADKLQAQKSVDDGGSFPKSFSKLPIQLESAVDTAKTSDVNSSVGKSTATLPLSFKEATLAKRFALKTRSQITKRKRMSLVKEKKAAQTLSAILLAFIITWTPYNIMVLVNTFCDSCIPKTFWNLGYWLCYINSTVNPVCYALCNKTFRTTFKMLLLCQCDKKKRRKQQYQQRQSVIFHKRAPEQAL
Chain of Neurokinin NK2 receptor (Human) (P21452 whole entry): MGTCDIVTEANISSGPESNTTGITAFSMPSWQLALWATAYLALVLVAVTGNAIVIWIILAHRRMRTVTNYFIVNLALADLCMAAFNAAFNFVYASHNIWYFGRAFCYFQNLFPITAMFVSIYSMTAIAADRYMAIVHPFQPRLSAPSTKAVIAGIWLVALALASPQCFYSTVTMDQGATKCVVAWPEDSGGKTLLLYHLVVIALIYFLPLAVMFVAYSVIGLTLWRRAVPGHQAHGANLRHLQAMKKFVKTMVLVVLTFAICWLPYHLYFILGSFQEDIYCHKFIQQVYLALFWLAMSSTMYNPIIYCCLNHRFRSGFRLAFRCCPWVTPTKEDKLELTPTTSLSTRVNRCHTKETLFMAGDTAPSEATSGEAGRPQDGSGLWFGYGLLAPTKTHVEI
Chain of α2C-Adrenergic receptor (Human) (P18825 whole entry): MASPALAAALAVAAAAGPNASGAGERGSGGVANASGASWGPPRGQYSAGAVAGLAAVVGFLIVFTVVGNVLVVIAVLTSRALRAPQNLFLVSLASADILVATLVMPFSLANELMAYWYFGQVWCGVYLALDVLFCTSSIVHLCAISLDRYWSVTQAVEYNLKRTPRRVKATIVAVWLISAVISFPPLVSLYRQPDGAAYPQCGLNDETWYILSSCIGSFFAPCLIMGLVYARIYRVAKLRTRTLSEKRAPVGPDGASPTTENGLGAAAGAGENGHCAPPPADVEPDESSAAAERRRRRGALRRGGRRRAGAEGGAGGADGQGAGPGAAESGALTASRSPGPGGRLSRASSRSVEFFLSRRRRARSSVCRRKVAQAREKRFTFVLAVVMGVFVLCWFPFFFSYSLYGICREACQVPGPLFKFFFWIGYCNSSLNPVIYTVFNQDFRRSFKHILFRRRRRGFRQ

For `CC(C)[C@@H]1CC[C@@H](C)C[C@H]1O` [l-menthol], the “Inhibition by l-Menthol (%)” value [1] was 21.87%, the “Inhibition by l-Menthol (%)” value [2] was 21.62% and the “Concentration dependence of inhibition of the [3H]-EBOB binding” value [3] was “concentration-dependent”. The “Inhibition by l-Menthol (%)” value ([3]; 0.1 mM l-menthol, Rat cerebral cortex) was 20.9%, the IC50 ([3]; read-out: IC50 for inhibition of the [3H]-EBOB binding, rat cerebral cortex preparation, 7 concentrations, duplicate) was 554 µM and the Ki ([3]; read-out: Ki (mol/L), inhibition of the binding of [3H]-EBOB, GABAA (Picrotoxin site), Ki=IC50/(1+[L/Kd])) was 0.000288 mol/L. The “Inhibition by l-Menthol (%)” value [4] was 11.34%, the “Inhibition by l-Menthol (%)” value [5] was 10.09% and the “Inhibition by l-Menthol (%)” value [6] was 8.22%. For the same molecule, the “Inhibition by l-Menthol (%)” value [7] was 7.88%, the “Inhibition by l-Menthol (%)” value [8] was 7.75% and the “Inhibition by l-Menthol (%)” value [9] was 7.73%. The “Inhibition by l-Menthol (%)” value [10] was 6.32%, the “Inhibition by l-Menthol (%)” value [11] was 6.12% and the “Inhibition by l-Menthol (%)” value [12] was 6.03%. The “Inhibition by l-Menthol (%)” value [13] was 5.76%, the “Inhibition by l-Menthol (%)” value [14] was 5.74% and the “Inhibition by l-Menthol (%)” value [15] was 5.13%. The “Inhibition by l-Menthol (%)” value [16] was 5.11%, the “Inhibition by l-Menthol (%)” value [17] was 4.65% and the “Inhibition by l-Menthol (%)” value [18] was 3.74%. For the same molecule, the “Inhibition by l-Menthol (%)” value [19] was 2.87%, the “Inhibition by l-Menthol (%)” value [20] was 1.27% and the “Inhibition by l-Menthol (%)” value [21] was 1.1%. For the same molecule, the “Inhibition by l-Menthol (%)” value [22] was 0.86%, the “Inhibition by l-Menthol (%)” value [23] was 0.37% and the “Inhibition by l-Menthol (%)” value [24] was 0.3%. The “Inhibition by l-Menthol (%)” value [25] was 0.2%, the “Inhibition by l-Menthol (%)” value [26] was 0.14% and the “Inhibition by l-Menthol (%)” value [27] was 0.12%. The “Inhibition by l-Menthol (%)” value [28] was 0%, the “Inhibition by l-Menthol (%)” value [29] was 0% and the “Inhibition by l-Menthol (%)” value [30] was 0%. The “Inhibition by l-Menthol (%)” value [31] was 0%, the “Inhibition by l-Menthol (%)” value [32] was 0% and the “Inhibition by l-Menthol (%)” value [33] was 0%. The “Inhibition by l-Menthol (%)” value [34] was 0%, the “Inhibition by l-Menthol (%)” value [35] was 0% and the “Inhibition by l-Menthol (%)” value [36] was 0%. For the same molecule, the “Inhibition by l-Menthol (%)” value [37] was 0%, the “Inhibition by l-Menthol (%)” value [38] was 0% and the “Inhibition by l-Menthol (%)” value [39] was 0%. The “Inhibition by l-Menthol (%)” value [40] was 0%, the “Inhibition by l-Menthol (%)” value [41] was 0% and the “Inhibition of the binding of 32 isotope-labeled ligands (Table 3 (b))” value [42] was “did not measurably inhibit”. For the same molecule, the “Inhibition rates, 9 isotope-labeled ligands (Table 3 (a))” value [42] was < 1%.
